Test results taken from patent US20230381314A1, “ATTENUATED CANCER CELLS AND METHODS RELATED THERETO” (priority 2020, published 2023).

Key:
AML model (C1498 cells) = test: In vivo treatment of AML with adjuvant (chemo-immunotherapy); design: species or system C57BL/6J mice; conditions: leukemia-bearing mice, up to 21 days post-tumor inoculation, DOX 5 mg/kg, MPLA 20 μg
Method: AML model was established by intravenous injection of 5×10^6 C1498 cells on day 0. On day 8 and day 15, saline, LNT cell+Adjuvant, free DOX and LNT cell/DOX+Adjuvant were administrated intravenously with DOX dose of 5 mg/kg and adjuvant (monophosphoryl lipid A, MPLA) 20 μg per mouse. Specifically, MPLA was intravenously injected 10 h post-injection of LNT cell or LNT cell/DOX. The bioluminescence images of mice were captured every 3 days. The exposure time was 2 min. On day 13, 400 μL blood was collected via the orbital vein. 200 μL blood was treated with ACK buffer and centrifuged at 800 g for 8 min to obtain pellets of white blood cells. After staining with BV421-CD3, PE-CD4 and APC-CD8, the samples were analyzed by flow cytometry. Another 200 μL blood in blood serum collection tubes (BD Microtainer 365967) was centrifuged at 3000 rpm for 10 min. The upper serum was detected with the following ELISA kits: IFN-γ (BioLegend 430804) and TNF-α (BioLegend 430904).

COc1cccc2c1C(=O)c1c(O)c3c(c(O)c1C2=O)C[C@@](O)(C(=O)CO)C[C@@H]3O[C@H]1C[C@H](N)[C@H](O)[C@H](C)O1.Cl [free DOX, Doxorubicin hydrochloride]
AML progression (bioluminescence of AML cancer cells) (AML model (C1498 cells)): partially inhibited
IC50, in vitro cytotoxicity against C1498 cells (C1498 cells): 0.32 µg/mL
